Data: ChEMBL document CHEMBL1158420, “Synthesis, spectral, crystal and antimicrobial studies of biologically potent oxime ethers of nitrogen, oxygen and sulfur heterocycles” (2009)
In brackets after ≈: the same amount, converted by molar mass.

How the values were obtained:
[1] = tested on: Pseudomonas aeruginosa; assay: Antibacterial activity against Pseudomonas aeruginosa by twofold dilution method; type: functional; conditions: Pseudomonas aeruginosa; read-out: MIC
[2] = tested on: Candida; assay: Antifungal activity against Candida 51 by twofold dilution method; type: functional; conditions: Candida, 51; read-out: MIC
[3] = tested on: Aspergillus flavus; assay: Antifungal activity against Aspergillus flavus by twofold dilution method; type: functional; conditions: Aspergillus flavus; read-out: MIC
[4] = tested on: Escherichia coli; assay: Antibacterial activity against Escherichia coli by twofold dilution method; type: functional; conditions: Escherichia coli; read-out: MIC
[5] = tested on: Aspergillus niger; assay: Antifungal activity against Aspergillus niger by twofold dilution method; type: functional; conditions: Aspergillus niger; read-out: MIC
[6] = tested on: Candida albicans; assay: Antifungal activity against Candida albicans by twofold dilution method; type: functional; conditions: Candida albicans; read-out: MIC
[7] = tested on: Rhizopus; assay: Antifungal activity against Rhizopus sp. by twofold dilution method; type: functional; conditions: Rhizopus; read-out: MIC
[8] = tested on: Cryptococcus neoformans; assay: Antifungal activity against Cryptococcus neoformans by twofold dilution method; type: functional; conditions: Cryptococcus neoformans; read-out: MIC
[9] = tested on: Staphylococcus aureus; assay: Antibacterial activity against Staphylococcus aureus by twofold dilution method; type: functional; conditions: Staphylococcus aureus; read-out: MIC
[10] = tested on: Salmonella enterica subsp. enterica; assay: Antibacterial activity against Salmonella typhi by twofold dilution method; type: functional, Salmonella enterica subsp. enterica serovar Typhi; conditions: Salmonella enterica; read-out: MIC

Structure (SMILES)	MIC [1] [µg/mL]	MIC [2] [µg/mL]	MIC [3] [µg/mL]	MIC [4] [µg/mL]	MIC [5] [µg/mL]	MIC [6] [µg/mL]	MIC [7] [µg/mL]	MIC [8] [µg/mL]	MIC [9] [µg/mL]	MIC [10] [µg/mL]
CC1/C(=N/OCc2ccccc2)CC(c2ccc(Cl)cc2)NC1c1ccc(Cl)cc1 (stereo not given)	25 (≈ 56.9 µM)	50 (≈ 114 µM)	50 (≈ 114 µM)	50 (≈ 114 µM)	50 (≈ 114 µM)	25 (≈ 56.9 µM)	100 (≈ 228 µM)	50 (≈ 114 µM)	50 (≈ 114 µM)	50 (≈ 114 µM)
COc1ccc(C2C/C(=N\OCc3ccccc3)C(C)C(c3ccc(OC)cc3)N2)cc1 (stereo not given)	50 (≈ 116 µM)	12.5 (≈ 29 µM)	50 (≈ 116 µM)	50 (≈ 116 µM)	50 (≈ 116 µM)	25 (≈ 58.1 µM)	25 (≈ 58.1 µM)	25 (≈ 58.1 µM)	25 (≈ 58.1 µM)	25 (≈ 58.1 µM)
CCC1/C(=N/OCc2ccccc2)CC(c2ccccc2)NC1c1ccccc1 (stereo not given)	100 (≈ 260 µM)	100 (≈ 260 µM)	> 200	100 (≈ 260 µM)	50 (≈ 130 µM)	100 (≈ 260 µM)	50 (≈ 130 µM)	200 (≈ 520 µM)	25 (≈ 65 µM)	50 (≈ 130 µM)
c1ccc(CON=C2CC(c3ccccc3)NC(c3ccccc3)C2)cc1 (stereo not given)	200 (≈ 561 µM)	200 (≈ 561 µM)	200 (≈ 561 µM)	> 200	> 200	200 (≈ 561 µM)	> 200	> 200	> 200	100 (≈ 281 µM)
CC1/C(=N/OCc2ccccc2)CC(c2ccccc2)NC1c1ccccc1 (stereo not given)	200 (≈ 540 µM)	200 (≈ 540 µM)	100 (≈ 270 µM)	200 (≈ 540 µM)	200 (≈ 540 µM)	100 (≈ 270 µM)	200 (≈ 540 µM)	> 200	200 (≈ 540 µM)	100 (≈ 270 µM)
Clc1ccc(C2CC(=NOCc3ccccc3)CC(c3ccc(Cl)cc3)N2)cc1 (stereo not given)	50 (≈ 118 µM)	200 (≈ 470 µM)	200 (≈ 470 µM)	50 (≈ 118 µM)	50 (≈ 118 µM)	50 (≈ 118 µM)	> 200	100 (≈ 235 µM)	50 (≈ 118 µM)	100 (≈ 235 µM)
COc1ccc(C2NC(c3ccc(OC)cc3)C(C)C(=NOCc3ccccc3)C2C)cc1 (stereo not given)	50 (≈ 112 µM)	6.25 (≈ 14.1 µM)	100 (≈ 225 µM)	25 (≈ 56.2 µM)	25 (≈ 56.2 µM)	12.5 (≈ 28.1 µM)	25 (≈ 56.2 µM)	12.5 (≈ 28.1 µM)	25 (≈ 56.2 µM)	25 (≈ 56.2 µM)
CCC1/C(=N\OCc2ccccc2)CC(c2ccccc2)OC1c1ccccc1 (stereo not given)	100 (≈ 259 µM)	100 (≈ 259 µM)	100 (≈ 259 µM)	50 (≈ 130 µM)	200 (≈ 519 µM)	100 (≈ 259 µM)	100 (≈ 259 µM)	50 (≈ 130 µM)	200 (≈ 519 µM)	100 (≈ 259 µM)
Cc1ccc(C2C/C(=N\OCc3ccccc3)C(C)C(c3ccc(C)cc3)N2)cc1 (stereo not given)	50 (≈ 125 µM)	50 (≈ 125 µM)	100 (≈ 251 µM)	100 (≈ 251 µM)	100 (≈ 251 µM)	50 (≈ 125 µM)	25 (≈ 62.7 µM)	100 (≈ 251 µM)	50 (≈ 125 µM)	100 (≈ 251 µM)
COc1ccc(C2OC(c3ccc(OC)cc3)C(C)C(=NOCc3ccccc3)C2C)cc1 (stereo not given)	25 (≈ 56.1 µM)	12.5 (≈ 28.1 µM)	100 (≈ 224 µM)	25 (≈ 56.1 µM)	50 (≈ 112 µM)	50 (≈ 112 µM)	25 (≈ 56.1 µM)	6.25 (≈ 14 µM)	50 (≈ 112 µM)	50 (≈ 112 µM)
CCOC(=O)C1/C(=N/OCc2ccccc2)CC(c2ccccc2)NC1c1ccccc1 (stereo not given)	50 (≈ 117 µM)	100 (≈ 233 µM)	100 (≈ 233 µM)	100 (≈ 233 µM)	200 (≈ 467 µM)	50 (≈ 117 µM)	200 (≈ 467 µM)	100 (≈ 233 µM)	200 (≈ 467 µM)	200 (≈ 467 µM)
